Data from patent publication US20210196779A1, “Compositions and Methods for Treating Steroid Hormone-Related Diseases or Disorders” (YALE UNIVERSITY, priority 2018, published 2021).

Tested on: MDAMB-231 cells
Experiment: Cell growth assay, MDAMB-231 breast cancer cells
Format: cell-based
Conditions: 4 days
Description: MCF7, T47D, MDA-MB-453, MDA-MB-231 breast cancer cells were grown in corning T75 cell culture flask in RPMI1640 medium supplemented with 5% FBS, 50 μg/ml Kanamycin in a 37° C., 5% CO2 incubator.
20,000 cells in 1 ml of medium (phenol red free RPMI1640, 5% charcoal-dialysis FBS, 50 μg/ml Kanamyacin) were seeded per well of a 24-well plate and incubated in a 37° C. incubator with 5% CO2 overnight. Different concentrations of herbal extract were added to each well in order to have final concentrations from 50 μg/ml to 500 μg/ml. For prostate cancer cells, DHT (25 nM) was used to stimulate androgen receptor activity. For glucocorticoid receptor overexpressed LNCaP cells, dexamethasone (50 nM) was used to stimulate glucocorticoid receptor activity. For all breast cancer cells, E2 (10 nM) was used to stimulate ER activity. Control medium without any steroid hormone was used as a control setting. After 4 days of incubation, cells were fixed and stained for 2 h with 0.5% methylene blue in 50% ethanol, followed by washing with tap water to remove unbound dye. Plates were air dried and then cells were dissolved in 1% sarkosyl (sodium lauroyl sarcosinate) by shaking at room temperature for 3 h. Cell growth was quantified based on the amount of methylene blue adsorbed by the cells as measured by a spectrophotometer (Molecular Devices) at 595 nm. […]

With `CC(=O)OCC1OC(Oc2cc3c(c(O)c2C)C(=O)c2ccc(O)cc2C3=O)C(OC2OC(C)C(O)C(O)C2O)C(O)C1O` [RGA, 1,3,6-Trihydroxy-2-methyl-9,10-anthracenedione 3-O-[α-L-Rhamnopyranosyl-(1→2)-6-O-acetyl-β-D-glucopyranoside]] the “inhibition of growth of triple negative MDAMB-231 cells” value was “inhibited the growth”.
